Patent US7868204B2, “Inhibitors of histone deacetylase” (MethylGene Inc., priority 2001, dated 2011)
Read-outs that look alike come from different tables or passages of the source.

What was measured:
[1] = target: T1, cloned recombinant human HDAC-1 (Homo sapiens, UniProt Q13547); assay: Human HDAC-1 enzyme inhibition, Assay 1 ([3H]-acetylated histone substrate, scintillation counting); assay type: biochemical
T1 construct: made in house; host or cells: Baculovirus insect cell expression system
Description: Assay 1. HDAC inhibitors were screened against a cloned recombinant human HDAC-1 enzyme expressed and purified from a Baculovirus insect cell expression system. […] The mixture was extracted with ethyl acetate and the released [^3H]-acetic acid was quantified by scintillation counting. For inhibition studies, the enzyme was preincubated with compounds at 4° C. for 30 minutes prior to initiation of the enzymatic assay. IC50 values for HDAC enzyme inhibitors were determined by performing dose response curves with individual compounds and determining the concentration of inhibitor producing fifty percent of the maximal inhibition.

[2] = test system: HCT116 cells; assay: MTT assay; assay type: cell-based; conditions: Homo sapiens, HCT116 cells, 72 hours
Description: HCT116 cells (2000/well) were plated into 96-well tissue culture plates one day before compound treatment. Compounds at various concentrations were added to the cells. The cells were incubated for 72 hours at 37° C. in 5% CO2 incubator. MTT (3-[4,5-dimethylthiazol-2-yl]-2,5 diphenyl tetrazolium bromide, Sigma) was added at a final concentration of 0.5 mg/ml and incubated with the cells for 4 hours before one volume of solubilization buffer (50% N,N-dimethylformamide, 20% SDS, pH 4.7) was added onto the cultured cells. […] OD values were converted to cell numbers according to a standard growth curve of the relevant cell line.

[3] = Table 5F, read-out: Human HDAC-1 IC50
[4] = Table 5b, read-out: Human HDAC-1 IC50
[5] = Table 5d, read-out: HDAC-1 IC50

T1 sequence (Q13547 whole entry): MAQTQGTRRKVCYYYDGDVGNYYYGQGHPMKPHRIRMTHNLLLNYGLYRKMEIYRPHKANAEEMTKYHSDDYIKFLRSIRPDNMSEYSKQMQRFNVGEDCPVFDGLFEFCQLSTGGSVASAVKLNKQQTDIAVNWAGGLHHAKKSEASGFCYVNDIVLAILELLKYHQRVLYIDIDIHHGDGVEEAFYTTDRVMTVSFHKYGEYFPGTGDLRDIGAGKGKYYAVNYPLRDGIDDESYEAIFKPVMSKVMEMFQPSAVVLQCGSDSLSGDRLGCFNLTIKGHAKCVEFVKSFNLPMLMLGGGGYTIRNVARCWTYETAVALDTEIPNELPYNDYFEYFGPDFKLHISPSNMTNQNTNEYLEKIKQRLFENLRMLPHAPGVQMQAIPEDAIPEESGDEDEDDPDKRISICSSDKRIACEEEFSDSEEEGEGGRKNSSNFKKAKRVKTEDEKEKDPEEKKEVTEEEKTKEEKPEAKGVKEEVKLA

| IC50 [1, 5] | IC50 ([2]; HCT-116, Table 5d) | SMILES | also measured |
| --- | --- | --- | --- |
|  |  | CNc1nc2cc(NCc3ccc(C(=O)Nc4ccccc4N)cc3)ccc2s1 [Cpd 456, N-(2-Amino-phenyl)-4-[(2-methylamino-benzothiazol-5-ylamino)-methyl]-benzamide] | IC50 [1, 3]: 3 µM; IC50 ([2]; HCT-116, 72 h, Table 5F): 0.4 µM |
|  |  | Nc1ccccc1NC(=O)c1ccc(C#CC2(O)CCCCC2)nc1 [Cpd 463, N-(2-Amino-phenyl)-6-(1-hydroxy-cyclohexylethynyl)-nicotinamide] | IC50 [1, 3]: 12 µM; IC50 ([2]; HCT-116, 72 h, Table 5F): 6 µM |
|  |  | Cc1ccc(Sc2ccc(C(=O)Nc3ccccc3N)cn2)cc1 [Cpd 464, N-(2-Amino-phenyl)-6-p-tolylsulfanyl-nicotinamide] | IC50 [1, 3]: 4 µM; IC50 ([2]; HCT-116, 72 h, Table 5F): 11 µM |
|  |  | CCCCNc1nc(NCCc2ccccc2)nc(NCc2ccc(C(=O)Nc3ccccc3N)cc2)n1 [Cpd 473] | IC50 [1, 4]: 4 µM; IC50 ([2]; HCT-116, 72 h, Table 5b): 3 µM |
|  |  | Nc1ccccc1NC(=O)c1ccc(CNc2nc(NCCc3ccc(Cl)cc3)nc(NC3CC3)n2)cc1 [Cpd 475] | IC50 [1, 4]: 0.6 µM; IC50 ([2]; HCT-116, 72 h, Table 5b): 2 µM |
|  |  | Nc1ccccc1NC(=O)c1ccc(CNc2nc(NCCc3cccc(Cl)c3)nc(NC3CC3)n2)cc1 [Cpd 477] | IC50 [1, 4]: 1 µM; IC50 ([2]; HCT-116, 72 h, Table 5b): 0.7 µM |
|  |  | COc1ccc(CCNc2nc(NCc3ccc(C(=O)Nc4ccccc4N)cc3)nc(NC3CC3)n2)cc1OC [Cpd 478] | IC50 [1, 4]: 3 µM; IC50 ([2]; HCT-116, 72 h, Table 5b): 0.7 µM |
|  |  | COc1cccc(CCNc2nc(NCc3ccc(C(=O)Nc4ccccc4N)cc3)nc(NC3CC3)n2)c1 [Cpd 479] | IC50 [1, 4]: 0.4 µM; IC50 ([2]; HCT-116, 72 h, Table 5b): 0.6 µM |
|  |  | Nc1ccccc1NC(=O)c1ccc(CNc2nc(NCCc3ccccn3)nc(NC3CC3)n2)cc1 [Cpd 480] | IC50 [1, 4]: 0.8 µM; IC50 ([2]; HCT-116, 72 h, Table 5b): 0.5 µM |
| 22 µM | 10 µM | COc1cc(Nc2ccc(/C=C/C(=O)Nc3ccccc3N)cc2)cc(OC)c1OC [Cpd 481] |  |
|  |  | Nc1ccccc1NC(=O)c1ccc(CNc2nc(NCCc3cccnc3)nc(NC3CC3)n2)cc1 [Cpd 481] | IC50 [1, 4]: 6 µM; IC50 ([2]; HCT-116, 72 h, Table 5b): 0.7 µM |
|  |  | Nc1ccccc1NC(=O)c1ccc(CNc2nc(NC3CC3)nc(OCCc3ccccc3)n2)cc1 [Cpd 482] | IC50 [1, 4]: 0.1 µM; IC50 ([2]; HCT-116, 72 h, Table 5b): 0.7 µM |
| 20 µM | 12 µM | COc1cc(/C=C/C(=O)Nc2ccccc2N)ccc1CNc1cc(OC)c(OC)c(OC)c1 [Cpd 484] |  |
|  |  | Nc1nc(NCc2ccc(C(=O)Nc3ccccc3N)cc2)nc(-c2ccccc2)n1 [Cpd 484] | IC50 [1, 4]: 2 µM; IC50 ([2]; HCT-116, 72 h, Table 5b): 0.3 µM |
|  |  | Nc1ccccc1NC(=O)c1ccc(CNc2nc(NC3Cc4ccccc4C3)nc(-c3ccccc3)n2)cc1 [Cpd 485, N-(2-amino-phenyl)-4-{[6-(2-indanyl-amino)-4-phenyl-[1,3,5]-triazin-2-yl-amino]-methyl}-benzamide] | IC50 [1, 4]: 0.4 µM; IC50 ([2]; HCT-116, 72 h, Table 5b): 3 µM |
| 4 µM | 5 µM | COc1cc(Cl)nc(NCc2ccc(/C=C/C(=O)Nc3ccccc3N)cc2)n1 [Cpd 493, N-(2-Amino-phenyl)-3-{4-[(4-chloro-6-methoxy-pyrimidin-2-ylamino)-methyl]-phenyl]-acrylamide] |  |
| 3 µM | 4 µM | COc1cc(NCc2ccc(/C=C/C(=O)Nc3ccccc3N)cc2)cc(OC)c1 [Cpd 494] |  |
| 8 µM | 13 µM | Nc1ccccc1NC(=O)/C=C/c1ccc(NCc2cccc(OC(F)(F)F)c2)cc1 [Cpd 496, N-(2-Amino-phenyl)-3-[4-(3-trifluoromethoxy-benzylamino)-phenyl]-acrylamide] |  |

| IC50 [1, 5] | IC50 ([2]; HCT-116, Table 5d) | SMILES | also measured |
| --- | --- | --- | --- |
| 15 µM | 6 µM | COc1cc(OCc2ccc(/C=C/C(=O)Nc3ccccc3N)cc2)cc(OC)c1OC [Cpd 497, N-(2-Amino-phenyl)-3-[4-(3,4,5-trimethoxy-phenoxymethyl)-phenyl]-acrylamide] |  |
| 23 µM | 37 µM | COc1cc(SCc2ccc(/C=C/C(=O)Nc3ccccc3N)cc2)cc(OC)c1OC [Cpd 500, N-(2-Amino-phenyl)-3-[4-(3,4,5-trimethoxy-phenylsulfanylmethyl)-phenyl]-acrylamide] |  |
| 4 µM | 10 µM | CC(=O)c1cc2c(cc1NCc1ccc(/C=C/C(=O)Nc3ccccc3N)cc1)OCO2 [Cpd 501, 3-{4-[(6-Acetyl-benzo[1,3]dioxol-5-ylamino)-methyl]-phenyl}-N-(2-amino-phenyl)-acrylamide] |  |
| 3 µM | > 25 µM | COc1ccc2nc(NCc3ccc(/C=C/C(=O)Nc4ccccc4N)cc3)sc2c1 [Cpd 502] |  |
| 5 µM | > 25 µM | Nc1ccccc1NC(=O)/C=C/c1ccc(CNc2ccc(N3CCOCC3)cc2)cc1 [Cpd 503, N-(2-Amino-phenyl)-3-{4-[(4-morpholin-4-yl-phenylamino)-methyl]-phenyl}-acrylamide] |  |
| 5 µM | > 25 µM | Nc1ccccc1NC(=O)/C=C/c1ccc(CNc2ccc(OC(F)(F)F)cc2)cc1 [Cpd 504, N-(2-Amino-phenyl)-3-{4-[(4-trifluoromethoxy-phenylamino)-methyl]-phenyl}-acrylamide] |  |
| 3 µM | 6 µM | Nc1ccccc1NC(=O)/C=C/c1ccc(CNc2ccc3c(c2)OCO3)cc1 [Cpd 505, N-(2-Amino-phenyl)-3-[4-(benzo[1,3]dioxol-5-ylaminomethyl)-phenyl]-acrylamide] |  |
| 15 µM | 11 µM | Nc1ccccc1NC(=O)/C=C/c1ccc(CNc2cccc(OC(F)(F)F)c2)cc1 [Cpd 506, N-(2-Amino-phenyl)-3-{4-[(3-trifluoromethoxy-phenylamino)-methyl]-phenyl}-acrylamide] |  |
| 6 µM | 5 µM | CC(C)c1ccc(NCc2ccc(/C=C/C(=O)Nc3ccccc3N)cc2)cc1 [Cpd 510, N-(2-Amino-phenyl)-3-{4-[(4-isopropyl-phenylamino)-methyl]-phenyl}-acrylamide] |  |
| 4 µM | > 25 µM | Nc1ccccc1NC(=O)/C=C/c1ccc(CNc2ccc(-c3ccccc3)cc2)cc1 [Cpd 511, N-(2-Amino-phenyl)-3-[4-(biphenyl-4-ylaminomethyl)-phenyl]-acrylamide] |  |
| 15 µM | 15 µM | Nc1ccccc1NC(=O)/C=C/c1ccc(Br)cc1 [Cpd 516, N-(2-Amino-phenyl)-3-(4-bromo-phenyl)-acrylamide] |  |
| 6 µM | 5 µM | COc1cc(OC)c(OC)cc1CNc1ccc(/C=C/C(=O)Nc2ccccc2N)cc1 [Cpd 517] |  |
| 5 µM | 3 µM | Nc1ccccc1NC(=O)/C=C/c1ccc(C(=O)Nc2ccccc2N)cc1 [Cpd 520, N-(2-Amino-phenyl)-4-[2-(2-amino-phenylcarbamoyl)-vinyl]-benzamide] |  |
| 17 µM | 30 µM | Nc1ccccc1NC(=O)/C=C/c1ccc(NCCNc2nccs2)nc1 [Cpd 522, N-(2-Amino-phenyl)-3-{6-[2-(thiazol-2-ylamino)-ethylamino]-pyridin-3-yl}-acrylamide] |  |
| 4 µM | 3 µM | CN1CCN(c2ccc(NCc3ccc(/C=C/C(=O)Nc4ccccc4N)cc3)cc2F)CC1 [Cpd 527, N-(2-Amino-phenyl)-3-(4-{[3-fluoro-4-(4-methyl-piperazin-1-yl)-phenylamino]-methyl}-phenyl)-acrylamide] |  |
| 20 µM | 32 µM | Nc1ccccc1NC(=O)/C=C/c1ccc(CNc2cccc(O)c2)cc1 [Cpd 528] |  |
| 5 µM | 17 µM | Nc1ccccc1NC(=O)/C=C/c1ccc(CNc2nccc(C(F)(F)F)n2)cc1 [Cpd 529] |  |

| SMILES | IC50 [1, 5] | IC50 ([2]; HCT-116, Table 5d) | also measured |
| --- | --- | --- | --- |
| Nc1ccccc1NC(=O)/C=C/c1ccc(CNc2cc([N+](=O)[O-])cc([N+](=O)[O-])c2)cc1 [Cpd 495] | 4 µM | 7 µM |  |
